Experimental data reported in patent EP0223385B1, “8-Azabicyclo[3,2,1]octane and 9-azabicyclo[3,3,1]nonane derivatives” (BEECHAM GROUP PLC, priority 1985, dated 1987).
Structures can show the parent of a compound that is named as a salt.

Tested on: von Bezold-Jarisch reflex evoked by 5-HT
Test: Antagonism of the von Bezold-Jarisch reflex evoked by 5-HT in the anaesthetised rat
Format: in vivo
Conditions: iv, anaesthetised male rats, compounds given intravenously, dose reducing the 5-HT-evoked (usually 6µg/kg i.v.) heart rate response to 50% of control, read-out: ED₅₀
Description: The compounds were evaluated for antagonism of the von Bezold-Jarisch reflex evoked by 5-HT in the anaesthetised rat according to the following method:
Male rats 250-350g, were anaesthetised with urethane (1.25g/kg intraperitoneally) and blood pressure and heart rate recorded as described by Fozard J.R. et al., J. Cardiovasc. Pharmacol. 2, 229-245 (1980). A submaximal dose of 5-HT (usually 6µg/kg) was given repeatedly by the intravenous route and changes in heart rate quantified. Compounds were given intravenously and the concentration required to reduce the 5 HT-evoked response to 50% of the control response (ED₅₀) was then determined.

SMILES	ED50
CN1[C@@H]2CCC[C@H]1C[C@@H](NC(=O)c1nn(C)c3ccccc13)C2 [Compound 2, N-(Endo-9-methyl-9-azabicyclo[3,3,1]non-3-yl)-1-methylindazole-3-carboxamide monohydrochloride]	0.7 µg/kg
CN1[C@@H]2CC[C@H]1C[C@@H](OC(=O)c1nn(C)c3ccccc13)C2 [Compound 1, 1-Methyl-3-indazolecarboxylic acid (endo-8-methyl-8-azabicyclo[3,2,1]oct-3-yl)ester monohydrochloride]	1.4 µg/kg
